# Measured values from ChEMBL document CHEMBL1201862, “PubChem BioAssay data set” (2004).
# Calls of active or inactive are those of the source.
# What was measured:
# [1] = target: T1, Tyrosine-protein phosphatase non-receptor type 7 (Homo sapiens, UniProt P35236); assay: inhibitors of human HePTP phosphatase, […], biochemical, absorbance, leukemia target (AID 521); format: functional
# T1 sequence (P35236 whole entry): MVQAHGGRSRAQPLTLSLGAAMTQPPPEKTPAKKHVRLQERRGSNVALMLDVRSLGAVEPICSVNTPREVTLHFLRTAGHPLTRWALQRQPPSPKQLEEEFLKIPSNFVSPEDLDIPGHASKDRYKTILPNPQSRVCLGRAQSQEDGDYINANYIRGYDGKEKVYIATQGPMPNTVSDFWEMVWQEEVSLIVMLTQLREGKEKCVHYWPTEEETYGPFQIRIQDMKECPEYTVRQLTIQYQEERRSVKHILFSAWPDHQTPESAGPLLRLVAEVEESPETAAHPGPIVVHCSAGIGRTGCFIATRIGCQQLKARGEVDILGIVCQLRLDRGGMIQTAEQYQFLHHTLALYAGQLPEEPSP
# Ephrin type-A receptor 4 = Ephrin type-A receptor 4 (Mus musculus, UniProt Q03137); assay: inhibitors of EphA4 binding to KYL peptide, primary screen, biochemical, colorimetric, mouse EphA4 (AID 689); format: functional
# [2] = target: Mitogen-activated protein kinase 10 (Homo sapiens, UniProt P53779); assay: Dose response biochemical screening assay for inhibitors of c-Jun N-Terminal Kinase 3 (JNK3). [Related pubchem assays: 746 ]
# Major prion protein = Major prion protein (Homo sapiens, UniProt P04156); format: functional, cell-based
# cells [3] = assay: cells
# [4] = Luminescence-based cell-based high throughput dose response assay to identify activators of the DAF-12 from the parasite S. stercoralis (ssDAF-12).; format: functional
# [5] = target: T2, Oxysterols receptor LXR-beta (Homo sapiens, UniProt P55055); assay: LXR agonists, Gal4 luciferase reporter, dose response, counter-screen for ssDAF-12 agonist project, cell-based, luminescence, HEK293, S. stercoralis campaign (AID 720737); format: functional; details: read-out: IC50 (the source's name)
# T2 sequence (P55055 whole entry): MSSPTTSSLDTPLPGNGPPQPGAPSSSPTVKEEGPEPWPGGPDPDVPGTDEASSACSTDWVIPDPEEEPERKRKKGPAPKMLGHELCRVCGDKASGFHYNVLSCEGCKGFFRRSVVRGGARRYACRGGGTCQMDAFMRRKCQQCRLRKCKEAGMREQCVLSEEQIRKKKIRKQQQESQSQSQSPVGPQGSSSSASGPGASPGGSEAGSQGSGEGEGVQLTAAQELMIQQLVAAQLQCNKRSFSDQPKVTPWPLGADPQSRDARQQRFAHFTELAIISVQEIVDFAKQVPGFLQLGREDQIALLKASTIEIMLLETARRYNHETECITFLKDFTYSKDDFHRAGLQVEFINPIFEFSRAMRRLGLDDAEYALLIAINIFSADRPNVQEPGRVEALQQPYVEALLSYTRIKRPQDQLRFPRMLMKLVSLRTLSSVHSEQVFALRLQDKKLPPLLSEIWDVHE
# [6] = P. falciparum late gametocyte killing, dose response, luminescence (AID 1117278); format: functional, cell-based;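 also: gametocytes exposed to compound for 24 hours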
# [7] = Jurkat T cell cytotoxicity, dose response, cytotoxicity control for P. falciparum gametocyte viability project, luminescence (AID 1117277); format: functional, cell-based;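 also: potency reflects loss of cellular ATP meaning fewer viable cells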
# [8] = target: E3 ubiquitin-protein ligase Mdm2 (Homo sapiens, UniProt Q00987); assay: enhancers of MDM2-luciferase reporter signal, concentration-effect titration, project on inhibitors of MDM2 ubiquitin ligase, cellular assay, luminescent readout, 384-well plate format (AID 1394); format: functional;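 also: MDM2 E3 inhibitors raise luminescence so EC50 is for signal enhancement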
# [9] = target: Peroxisome proliferator-activated receptor gamma/Nuclear receptor coactivator 1 (Homo sapiens, UniProt P37231); assay: TR-FRET dose response biochemical High Throughput Screening assay for agonists of the steroid receptor coactivator 1 (SRC-1) recruitment by the peroxisome proliferator-activated receptor gamma (PPAR gamma): non-selective agonists. [Related pubchem assays (depositor defined):AID1300, AID1808, AID504735, AID631]; format: protein assay
# [10] = target: Peroxisome proliferator-activated receptor gamma/Nuclear receptor coactivator 3 (Homo sapiens, UniProt P37231); assay: TR-FRET dose response biochemical High Throughput Screening assay for agonists of the steroid receptor coactivator 3 (SRC-3) recruitment by the peroxisome proliferator-activated receptor gamma (PPAR gamma): non-selective agonists. [Related pubchem assays: 1301 (Confirmation screen.), 1048 (Primary screen.)]; format: functional
# [11] = target: Peroxisome proliferator-activated receptor gamma/Nuclear receptor coactivator 2 (Homo sapiens, UniProt P37231); assay: TR-FRET dose response biochemical High Throughput Screening assay for agonists of the steroid receptor coactivator 2 (SRC-2) recruitment by the peroxisome proliferator-activated receptor gamma (PPAR gamma): non-selective agonists. [Related pubchem assays: 1297, 1032 ]; format: functional
# BJ [12] = assay: cytotoxicity toward BJ-TERT fibroblasts, dose response, cell-based, RAS-independent, luminescence (AID 1933); format: functional; details: Homo sapiens
# [13] = target: T3, Heat shock factor protein 1 (Mus musculus, UniProt P38532); assay: inhibition of MG132-induced HSE-luciferase signal, confirmation, cell-based, NIH3T3, luminescence, dose retest (AID 2382); format: functional;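 also: NIH3T3 fibroblasts with HSF1-driven luciferase reporter stressed by proteasome inhibitor MG132; luminescence from HSF1-driven luciferase expression after 8 hours of MG132 stress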
# T3 sequence (P38532 whole entry): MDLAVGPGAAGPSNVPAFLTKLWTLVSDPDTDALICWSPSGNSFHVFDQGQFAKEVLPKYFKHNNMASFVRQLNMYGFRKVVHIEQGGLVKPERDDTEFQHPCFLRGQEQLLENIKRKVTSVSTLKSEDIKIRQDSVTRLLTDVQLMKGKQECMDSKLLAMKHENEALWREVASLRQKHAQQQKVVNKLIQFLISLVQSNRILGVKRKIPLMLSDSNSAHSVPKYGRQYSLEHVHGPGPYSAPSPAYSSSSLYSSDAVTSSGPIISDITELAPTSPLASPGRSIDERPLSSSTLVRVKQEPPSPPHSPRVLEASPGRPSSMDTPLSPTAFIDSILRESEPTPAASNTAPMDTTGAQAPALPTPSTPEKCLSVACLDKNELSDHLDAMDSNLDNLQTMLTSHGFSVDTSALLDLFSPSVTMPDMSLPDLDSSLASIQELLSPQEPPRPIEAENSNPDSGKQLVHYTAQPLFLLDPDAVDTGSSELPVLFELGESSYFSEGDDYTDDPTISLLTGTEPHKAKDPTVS
# BJ [14] = assay: cells; format: functional, cell-based; details: Homo sapiens
# BJ [15] = assay: cytotoxicity toward BJ-TERT-LT-ST fibroblasts, dose response, cell-based, RAS-independent, luminescence (AID 1935); format: functional; details: Homo sapiens;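 also: BJ fibroblasts immortalized with TERT plus LT and ST oncogenes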
# [16] = cytotoxicity toward DRD oncogenic fibroblasts, dose response, cell-based, non-viral oncogenic, luminescence (AID 1934); format: functional; details: Homo sapiens
# [17] = cytotoxicity in HEK-293T cells, dose response, cytotoxicity control for TCR NF-kB inhibitor project, luminescence, T-cell screen hits (AID 489026); format: functional, cell-based;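 also: cells exposed to compound about 14 hours before the viability readout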
# [18] = Shn3 3'UTR reporter inhibitors, dose response, cell-based, Clone20 osteoblasts, firefly luciferase, cherry-picked (AID 624132); format: functional;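 also: firefly luciferase luminescence from reporter carrying the Shn3 3'UTR in osteoblasts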
# [19] = HepG2 cell cytotoxicity, dose response, cytotoxicity control for Shn3 inhibitor project, CellTiter-Glo, cherry-picked (AID 624134); format: functional, cell-based
# [20] = control 3'UTR Renilla luciferase suppression, dose response, counter-screen for Shn3 inhibitor project, cell-based, Clone20-Shn3RL, cherry-picked (AID 624133); format: functional
# [21] = target: T4, Corticotropin-releasing factor receptor 2/Corticotropin-releasing factor-binding protein (Homo sapiens, UniProt P24387+Q13324); assay: Dose Response confirmation of uHTS hits for small molecule antagonists of the CRF-binding protein and CRF-R2 receptor complex.; format: functional; details: read-out: IC50_Mean
# T4 sequence (Q13324 whole entry): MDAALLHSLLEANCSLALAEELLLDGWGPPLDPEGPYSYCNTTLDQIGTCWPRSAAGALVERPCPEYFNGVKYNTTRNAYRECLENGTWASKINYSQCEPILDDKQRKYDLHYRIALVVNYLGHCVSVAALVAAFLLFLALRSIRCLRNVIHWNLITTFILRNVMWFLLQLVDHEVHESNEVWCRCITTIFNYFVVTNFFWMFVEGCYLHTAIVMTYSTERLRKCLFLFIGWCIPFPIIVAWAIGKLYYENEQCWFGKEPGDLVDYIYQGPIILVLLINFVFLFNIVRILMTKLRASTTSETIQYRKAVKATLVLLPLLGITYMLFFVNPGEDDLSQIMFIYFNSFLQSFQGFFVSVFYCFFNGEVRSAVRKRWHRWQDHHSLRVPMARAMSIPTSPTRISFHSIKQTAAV
# T4 sequence (P24387 whole entry): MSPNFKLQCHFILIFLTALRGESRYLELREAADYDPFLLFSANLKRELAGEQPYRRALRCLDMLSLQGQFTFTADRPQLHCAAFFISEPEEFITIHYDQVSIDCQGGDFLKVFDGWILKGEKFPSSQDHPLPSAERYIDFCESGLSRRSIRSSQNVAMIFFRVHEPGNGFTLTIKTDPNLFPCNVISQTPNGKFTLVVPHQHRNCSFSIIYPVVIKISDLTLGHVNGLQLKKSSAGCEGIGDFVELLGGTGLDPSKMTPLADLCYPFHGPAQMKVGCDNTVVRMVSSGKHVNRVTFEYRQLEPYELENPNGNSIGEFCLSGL
# [22] = target: T4, Corticotropin-releasing factor receptor 2/Corticotropin-releasing factor-binding protein; assay: activators of CRF receptor 2 with binding protein – uHTS hits, confirmation (AID 602473); format: functional; details: read-out: EC50_Mean
# [23] = Luminescence Cell-Based Dose Response to Identify Activators of 5'UTR Stem-Loop Driven Prion Protein mRNA Translation in H4-C Neuroglioblastoma Cells. [Related pubchem assays: 1829 (Project Summary), 1814 (Primary HTS)]; format: functional
# [24] = Luminescence Cell-Based Dose Confirmation HTS to Identify Activators of 5'UTR Stem-Loop Driven Alpha-Synuclein mRNA Translation in H4 Neuroglioblastoma Cells. [Related pubchem assays: 1829 (Project Summary), 1814 (Primary HTS)]; format: functional
# [25] = Luminescence Cell-Based Dose Response HTS to Identify Activators of Luciferase Translation or Activity in H4 […] Cells. [Related pubchem assays: 1829 (Project Summary), 1814 (Primary HTS)]; format: functional
# H4 = assay: Luminescence Cell-Based Dose Response HTS to Identify Activators of 5'UTR Stem-Loop Driven Prion Protein mRNA Translation in H4 Neuroglioblastoma Cells. [Related pubchem assays: 1829 (Project Summary), 1814 (Primary HTS)]; format: functional; details: Homo sapiens
# [26] = Luminescence Cell-Based Dose Response to Identify Activators of Luciferase Translation or Activity in H4-C Neuroglioblastoma Cells. [Related pubchem assays: 1829 (Project Summary), 1814 (Primary HTS)]; format: functional
# [27] = microbe, parasite or virus in culture; format: functional; details: Mycobacterium tuberculosis
# [28] = Luminescence Cell-Based Dose Confirmation to Identify Activators of 5'UTR Stem-Loop Driven Alpha-Synuclein mRNA Translation in H4 Neuroglioblastoma Cells. [Related pubchem assays: 1829 (Project Summary), 1814 (Primary HTS)]; format: functional
# [29] = human group III sPLA2 inhibitors, dose response, biochemical, QFRET, IC50 (AID 743457);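 also: green fluorescence rise as the enzyme cleaves BODIPY PC-A2 in liposomes; potency for inhibition of the enzyme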
# [30] = target: T2, Oxysterols receptor LXR-beta; format: functional, cell-based
# cells [31] = assay: cells; remark: listed apart in the source
smiles,measurement,setting,value
COc1ccc(NC(=O)C2CCCN(S(=O)(=O)c3cccnc3)C2)cc1 (stereo not drawn),IC50,[1],> 100 µM (not active)
O=C(c1ccc2c(=O)n(Cc3ccc4c(c3)OCO4)c(=S)[nH]c2c1)N1CCCCC1,IC50,Ephrin type-A receptor 4,> 100 µM (not active)
N#Cc1c(O)nc(SCc2ccc(F)cc2)nc1-c1ccco1,IC50,[2],13.6 µM (not active)
same,IC50,Major prion protein,1.02 µM (active)
same,IC50,cells [3],> 138 µM (inactive)
O=C(NCCc1c[nH]c2ccccc12)c1cnccn1,IC50,[4],> 67.5 µM (inactive)
same,EC50,[5],> 67.5 µM (inactive)
same,IC50,[6],> 109 µM (inactive)
same,IC50,[7],> 83.3 µM (inactive)
Cc1cc(NC(=O)C2CC2)ncc1NC(=O)C12CC3CC(CC(C3)C1)C2,EC50,[8],15.7 µM (not active)
Cc1ccccc1-c1nnc(S)o1,EC50,[9],71.9 µM (inactive)
same,EC50,[10],> 79.4 µM (not active)
same,EC50,[11],9.69 µM (active)
same,IC50,[2],55.5 µM (not active)
same,IC50,Major prion protein,5.75 µM (active)
same,IC50,cells [3],> 138 µM (inactive)
Cc1cc(COc2ccccc2OCCN2CCN(C)CC2)no1,IC50,[1],> 100 µM (not active)
C=CCSc1nc2ccccc2n1C(=O)/C=C/c1cc(OC)c(OC)c(OC)c1,EC50,[8],0.27 µM (active)
same,EC50,BJ [12],2.56 µM (inconclusive)
same,EC50,[13],10.3 µM (inconclusive)
same,EC50,BJ [14],> 150 µM (inconclusive)
same,EC50,BJ [15],3.4 µM (active)
same,EC50,[16],2.66 µM (active)
same,IC50,[17],71.8 µM (inactive)
same,AC50,[18],1.13 µM (active)
same,AC50,[19],63.8 µM (active)
same,AC50,[20],14.2 µM (active)
CCCc1n[nH]c(SCc2ccc(Cl)cc2Cl)n1,IC50,[21],> 47.1 µM (inactive)
same,EC50,[22],> 53 µM (inactive)
same,IC50,[6],> 109 µM (inactive)
same,IC50,[7],> 83.3 µM (inactive)
C=CCn1c(=O)/c(=C/c2cc(OC)c(OC)c(OC)c2)s/c1=C(/C#N)c1nc2ccccc2n1C,IC50,Ephrin type-A receptor 4,> 100 µM (not active)
same,EC50,[22],13.3 µM (active)
C=CCS/C(N)=N\N=C\c1c(O)ccc2ccccc12,EC50,[23],0.313 µM (active)
same,EC50,[24],9.96 µM (active)
same,EC50,[25],0.902 µM (active)
same,EC50,H4,< 0.1 µM (active)
same,EC50,[26],0.324 µM (active)
same,CC50,[27],> 40 µM (active)
same,EC50,[28],0.426 µM (active)
same,IC50,[29],> 122 µM (inactive)
same,EC50,[30],> 67.5 µM (inactive)
same,EC50,cells [31],> 67.5 µM (inactive)
